Assay results taken from patent US20250288575A1, “EYE DROP COMPOSITION FOR PREVENTION OR TREATMENT OF OPHTHALMIC DISEASES AND PREPARATION METHOD THEREFOR” (OCUMENSION THERAPEUTICS (SUZHOU) CO., LTD., priority 2021, published 2025).

Assay: Antimicrobial efficacy testing (AET) of atropine sulfate eye drops (0.01%) with different BAK concentrations
Description: The concentration of benzalkonium chloride (BAK) in atropine sulfate eye drops was verified via antimicrobial efficacy testing (AET). The lyophilized preparation was reconstituted with 8 mL of reconstituted diluent including BAK at concentrations of 100 ppm, 80 ppm, 50 ppm, 25 ppm, or 0 ppm to obtain atropine sulfate eye drops (0.01%) including benzalkonium chloride at different concentrations.

[1] = BAK 0 ppm in atropine sulfate eye drops (0.01%)
[2] = BAK 25 ppm in atropine sulfate eye drops (0.01%)
[3] = BAK 50 ppm in atropine sulfate eye drops (0.01%)
[4] = BAK 80 ppm in atropine sulfate eye drops (0.01%)
[5] = BAK 100 ppm in atropine sulfate eye drops (0.01%)

benzalkonium chloride [BAK]
AET, Chinese Pharmacopoeia Method, Criteria A&B [1]: Fail | AET, European Pharmacopoeia Method, Criteria A&B [1]: Fail | AET, United States Pharmacopeia Method [1]: Fail | AET, Chinese Pharmacopoeia Method, Criteria A&B [2]: Pass | AET, European Pharmacopoeia Method, Criteria A&B [2]: Pass | AET, United States Pharmacopeia Method [2]: Pass | AET, Chinese Pharmacopoeia Method, Criteria A&B [3]: Pass | AET, European Pharmacopoeia Method, Criteria A&B [3]: Pass | AET, United States Pharmacopeia Method [3]: Pass | AET, Chinese Pharmacopoeia Method, Criteria A&B [4]: Pass | AET, European Pharmacopoeia Method, Criteria A&B [4]: Pass | AET, United States Pharmacopeia Method [4]: Pass | AET, Chinese Pharmacopoeia Method, Criteria A&B [5]: Pass | AET, European Pharmacopoeia Method, Criteria A&B [5]: Pass | AET, United States Pharmacopeia Method [5]: Pass | results of the antibacterial efficacy testing (all tested BAK concentrations (100, 80, 50, 25 ppm) except 0 ppm): met the criteria | antibacterial efficacy criteria "A", Chinese Pharmacopoeia, during long-term storage (benzalkonium chloride concentration greater than 70 ppm): criteria requirements of antibacterial efficacy “A” were met
